Data reported in ChEMBL document CHEMBL5291721, “A preclinical secondary pharmacology resource illuminates target-adverse drug reaction associations of marketed drugs” (Nat Commun, 2023).

Legend:
Acetylcholinesterase = Acetylcholinesterase (Homo sapiens, UniProt P22303); format: functional
[1] = biological target: T1, Alpha-1A adrenergic receptor (Homo sapiens, UniProt P35348); format: functional, cell-based
T1 sequence (P35348 whole entry): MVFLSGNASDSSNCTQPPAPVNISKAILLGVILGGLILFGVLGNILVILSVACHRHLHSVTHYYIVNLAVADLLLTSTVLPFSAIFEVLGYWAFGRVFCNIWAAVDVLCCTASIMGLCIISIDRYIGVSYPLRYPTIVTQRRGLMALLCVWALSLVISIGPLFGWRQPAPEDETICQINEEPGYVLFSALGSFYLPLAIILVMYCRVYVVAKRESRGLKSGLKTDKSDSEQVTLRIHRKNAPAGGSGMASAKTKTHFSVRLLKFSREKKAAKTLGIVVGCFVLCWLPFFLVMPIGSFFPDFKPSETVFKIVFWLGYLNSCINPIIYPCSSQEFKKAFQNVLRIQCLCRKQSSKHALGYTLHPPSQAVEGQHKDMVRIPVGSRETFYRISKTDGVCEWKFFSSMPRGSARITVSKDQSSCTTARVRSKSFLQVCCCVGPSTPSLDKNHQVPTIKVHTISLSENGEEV

Estrogen receptor = biological target: T2, Estrogen receptor (Homo sapiens, UniProt P03372)
T2 sequence (P03372 whole entry): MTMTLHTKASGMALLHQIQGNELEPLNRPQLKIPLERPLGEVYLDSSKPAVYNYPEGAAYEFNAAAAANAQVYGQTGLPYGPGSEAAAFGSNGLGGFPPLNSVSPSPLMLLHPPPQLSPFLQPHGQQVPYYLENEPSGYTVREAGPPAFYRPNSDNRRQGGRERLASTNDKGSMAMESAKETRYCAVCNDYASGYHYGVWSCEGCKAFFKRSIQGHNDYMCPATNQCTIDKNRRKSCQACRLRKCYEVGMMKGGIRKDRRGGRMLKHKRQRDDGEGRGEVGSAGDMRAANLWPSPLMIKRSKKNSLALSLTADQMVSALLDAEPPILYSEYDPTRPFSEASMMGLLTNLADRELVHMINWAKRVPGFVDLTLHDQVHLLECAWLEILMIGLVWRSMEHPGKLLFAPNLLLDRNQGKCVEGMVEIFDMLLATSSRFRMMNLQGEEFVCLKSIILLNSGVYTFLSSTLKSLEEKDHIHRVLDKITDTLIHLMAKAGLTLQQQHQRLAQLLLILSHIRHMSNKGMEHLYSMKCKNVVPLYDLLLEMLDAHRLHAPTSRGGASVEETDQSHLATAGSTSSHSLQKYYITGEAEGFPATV

Prothrombin = Prothrombin (Homo sapiens, UniProt P00734); format: functional
Histamine H3 receptor = Histamine H3 receptor (Homo sapiens, UniProt Q9Y5N1)
[2] = biological target: 5-hydroxytryptamine receptor 2B (Homo sapiens, UniProt P41595); format: functional, cell-based
Progesterone receptor = biological target: T3, Progesterone receptor (Homo sapiens, UniProt P06401)
T3 sequence (P06401 whole entry): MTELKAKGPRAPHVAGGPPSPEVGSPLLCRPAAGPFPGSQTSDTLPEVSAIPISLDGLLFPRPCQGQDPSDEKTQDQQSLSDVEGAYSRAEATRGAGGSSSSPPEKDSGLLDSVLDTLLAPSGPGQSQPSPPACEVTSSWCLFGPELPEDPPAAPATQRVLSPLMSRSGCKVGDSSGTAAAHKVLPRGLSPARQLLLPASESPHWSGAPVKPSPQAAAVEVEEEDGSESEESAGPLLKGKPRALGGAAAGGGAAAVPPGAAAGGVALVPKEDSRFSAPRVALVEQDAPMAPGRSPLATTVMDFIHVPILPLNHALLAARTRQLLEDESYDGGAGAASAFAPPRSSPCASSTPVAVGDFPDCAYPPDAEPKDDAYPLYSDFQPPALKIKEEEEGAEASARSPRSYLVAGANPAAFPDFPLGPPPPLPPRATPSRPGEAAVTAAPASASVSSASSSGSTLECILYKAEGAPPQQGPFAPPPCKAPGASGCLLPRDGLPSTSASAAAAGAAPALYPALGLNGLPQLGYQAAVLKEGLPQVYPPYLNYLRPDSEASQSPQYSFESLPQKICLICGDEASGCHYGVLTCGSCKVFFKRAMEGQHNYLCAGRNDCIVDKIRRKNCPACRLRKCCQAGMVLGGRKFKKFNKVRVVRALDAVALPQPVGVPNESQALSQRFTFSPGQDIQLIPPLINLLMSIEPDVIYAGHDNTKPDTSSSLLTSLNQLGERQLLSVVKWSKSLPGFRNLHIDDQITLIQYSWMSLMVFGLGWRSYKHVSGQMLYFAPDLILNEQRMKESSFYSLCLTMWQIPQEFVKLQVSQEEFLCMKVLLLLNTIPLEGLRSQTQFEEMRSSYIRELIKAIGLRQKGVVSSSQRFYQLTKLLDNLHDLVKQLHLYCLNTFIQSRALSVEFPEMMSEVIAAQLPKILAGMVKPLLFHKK

Thromboxane A2 receptor = biological target: T4, Thromboxane A2 receptor (Homo sapiens, UniProt P21731); format: functional, cell-based
T4 sequence (P21731 whole entry): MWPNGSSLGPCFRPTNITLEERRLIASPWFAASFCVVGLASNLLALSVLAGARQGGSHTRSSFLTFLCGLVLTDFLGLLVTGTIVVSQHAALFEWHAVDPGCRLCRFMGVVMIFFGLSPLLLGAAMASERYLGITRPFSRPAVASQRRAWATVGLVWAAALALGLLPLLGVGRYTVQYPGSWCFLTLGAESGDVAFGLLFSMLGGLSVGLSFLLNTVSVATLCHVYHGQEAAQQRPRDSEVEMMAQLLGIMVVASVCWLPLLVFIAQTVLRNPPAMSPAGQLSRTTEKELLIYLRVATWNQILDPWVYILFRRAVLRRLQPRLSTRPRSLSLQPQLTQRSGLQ
Note: assay procedure not described here.

Acetylcholinesterase, sequence (P22303 whole entry): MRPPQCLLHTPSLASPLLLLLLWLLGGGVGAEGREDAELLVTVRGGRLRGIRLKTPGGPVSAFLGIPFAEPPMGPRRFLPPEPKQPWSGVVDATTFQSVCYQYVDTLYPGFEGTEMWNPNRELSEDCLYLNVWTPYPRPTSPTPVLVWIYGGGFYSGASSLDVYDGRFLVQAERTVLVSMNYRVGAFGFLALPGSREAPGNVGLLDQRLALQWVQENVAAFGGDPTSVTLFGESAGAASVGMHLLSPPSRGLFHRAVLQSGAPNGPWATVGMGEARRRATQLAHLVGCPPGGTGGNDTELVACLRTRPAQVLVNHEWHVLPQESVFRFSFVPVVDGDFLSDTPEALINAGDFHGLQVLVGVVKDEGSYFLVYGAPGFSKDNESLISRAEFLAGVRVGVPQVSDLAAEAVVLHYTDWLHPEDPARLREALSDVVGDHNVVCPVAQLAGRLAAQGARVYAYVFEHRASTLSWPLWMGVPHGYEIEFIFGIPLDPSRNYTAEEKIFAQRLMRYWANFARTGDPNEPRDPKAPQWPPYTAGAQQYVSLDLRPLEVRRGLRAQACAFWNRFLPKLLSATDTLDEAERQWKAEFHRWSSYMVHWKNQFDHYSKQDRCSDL
5-hydroxytryptamine receptor 2B, sequence (P41595 whole entry): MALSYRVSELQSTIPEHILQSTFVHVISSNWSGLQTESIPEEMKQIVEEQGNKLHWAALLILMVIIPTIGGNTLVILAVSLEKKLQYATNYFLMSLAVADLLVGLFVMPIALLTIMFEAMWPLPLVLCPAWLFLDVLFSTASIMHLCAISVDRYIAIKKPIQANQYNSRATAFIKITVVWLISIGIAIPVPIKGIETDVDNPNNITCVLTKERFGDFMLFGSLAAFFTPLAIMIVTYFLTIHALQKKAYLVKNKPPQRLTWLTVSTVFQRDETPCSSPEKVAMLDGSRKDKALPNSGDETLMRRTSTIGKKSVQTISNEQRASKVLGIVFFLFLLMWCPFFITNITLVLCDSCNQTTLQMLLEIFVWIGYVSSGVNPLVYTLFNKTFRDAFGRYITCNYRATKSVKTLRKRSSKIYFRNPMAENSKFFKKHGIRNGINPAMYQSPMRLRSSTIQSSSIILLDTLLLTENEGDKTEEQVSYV
Histamine H3 receptor, sequence (Q9Y5N1 whole entry): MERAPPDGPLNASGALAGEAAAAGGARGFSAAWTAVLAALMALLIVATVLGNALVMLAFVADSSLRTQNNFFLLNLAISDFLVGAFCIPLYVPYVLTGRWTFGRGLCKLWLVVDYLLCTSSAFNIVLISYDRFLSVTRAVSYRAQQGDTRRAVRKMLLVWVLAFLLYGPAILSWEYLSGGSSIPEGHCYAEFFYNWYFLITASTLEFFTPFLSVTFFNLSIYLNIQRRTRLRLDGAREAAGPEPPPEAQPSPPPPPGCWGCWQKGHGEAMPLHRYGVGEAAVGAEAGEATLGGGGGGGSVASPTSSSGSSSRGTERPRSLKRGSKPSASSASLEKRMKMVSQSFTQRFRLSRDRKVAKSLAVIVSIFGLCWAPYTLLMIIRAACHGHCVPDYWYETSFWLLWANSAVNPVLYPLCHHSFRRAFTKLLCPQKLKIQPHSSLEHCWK

| Compound | AC50 (Acetylcholinesterase) [µM] | AC50 [1] [µM] | AC50 (Estrogen receptor) [µM] | AC50 (Prothrombin) [µM] | AC50 (Histamine H3 receptor) [µM] | AC50 [2] [µM] | AC50 (Progesterone receptor) [µM] | AC50 (Thromboxane A2 receptor) [µM] |
| --- | --- | --- | --- | --- | --- | --- | --- | --- |
| CC(C)Cc1ccc(C(C)C(=O)OCc2ccccn2)cc1 (stereo not drawn) [IBUPROFEN PICONOL] | > 30 | > 30 | > 30 | > 30 | > 30 | > 30 | 19.1 | > 30 |
| C[C@@H]1O[C@@H](O[C@H]2C[C@@H](O)[C@]3(CO)[C@H]4[C@H](O)C[C@]5(C)[C@@H](C6=CC(=O)OC6)CC[C@]5(O)[C@@H]4CC[C@]3(O)C2)[C@H](O)[C@H](O)[C@H]1O [OUABAIN] | > 30 | > 30 | > 30 | > 30 | > 30 | > 30 | > 30 | > 30 |
| CC(O)(CC(=O)O)CC(=O)O [MEGLUTOL] | > 30 | 18 | > 30 | > 30 | > 30 | > 30 | > 30 | > 30 |
| COc1ncnc(NS(=O)(=O)c2ccc(N)cc2)c1OC [SULFADOXINE] | > 30 | > 30 | 22.7 | > 30 | > 30 | > 30 | > 30 | > 30 |
| Cc1c(C(C)C)c(=O)n(-c2ccccc2)n1C [PROPYPHENAZONE] | > 30 | > 30 | > 30 | > 30 | > 30 | > 30 | > 30 | > 30 |
| N=C(N)NC(=O)c1nc(Cl)c(N)nc1N [AMILORIDE] | > 30 | > 30 | > 30 | > 30 | > 30 | > 30 | > 30 | > 30 |
| COC(=O)N(C)c1c(N)nc(-c2nn(Cc3ccccc3F)c3ncccc23)nc1N [RIOCIGUAT] | > 30 | > 30 | > 30 | > 30 | > 30 | > 30 | > 30 | > 30 |
| CCCCC(=O)O[C@H]1CC[C@H]2[C@@H]3CCc4cc(O)ccc4[C@H]3CC[C@]12C [ESTRADIOL VALERATE] | > 30 | > 30 | 0.0822 | > 30 | > 30 | > 30 | 0.234 | > 30 |
| OCc1ccccc1 [BENZYL ALCOHOL] | > 30 | > 30 | > 30 | > 30 | > 30 | > 30 | > 30 | > 30 |
| COc1cccc2c1C(=O)c1c(O)c3c(c(O)c1C2=O)C[C@@](O)(C(=O)CO)C[C@@H]3O[C@H]1C[C@H](N)[C@@H](O)[C@H](C)O1 [EPIRUBICIN] | 17 | > 1 | > 30 | > 30 | > 30 | > 30 | > 30 | 8.17 |
| CC(C)N1CCOC(c2cccc(C(F)(F)F)c2)C1 (stereo not drawn) [OXAFLOZANE] | > 30 | > 30 | > 30 | > 30 | > 30 | 1.01 | > 30 | > 30 |
| CC1(C)S[C@@H]2[C@H](NC(=O)[C@H](NC(=O)c3cnc4cccnc4c3O)c3ccccc3)C(=O)N2[C@H]1C(=O)O [APALCILLIN] | > 30 | > 30 | > 30 | > 30 | > 30 | > 30 | > 30 | > 30 |
| CN1CCc2c(c3ccccc3n2Cc2ccccc2)C1 [MEBHYDROLIN] | > 30 | 1.07 | > 30 | > 30 | > 30 | > 30 | > 30 | > 30 |
| Oc1ccc(OCc2ccccc2)cc1 [MONOBENZONE] | > 30 | > 30 | > 30 | > 30 | > 30 | > 30 | > 30 | > 30 |
| CC(=O)OCC(=O)[C@@]1(O)CC[C@H]2[C@@H]3C[C@H](C)C4=CC(=O)C=C[C@]4(C)[C@H]3[C@@H](O)C[C@@]21C [METHYLPREDNISOLONE ACETATE] | > 30 | > 30 | > 30 | 11.9 | > 30 | > 30 | 3.03 | > 30 |
| COc1c(OCCCN2CCOCC2)ccc2c1N=C(NC(=O)c1cnc(N)nc1)N1CCN=C21 [COPANLISIB] | > 30 | > 30 | > 30 | > 30 | > 30 | > 30 | > 30 | > 30 |
| Nc1ccc(C(=O)NCC(=O)O)cc1 [AMINOHIPPURIC ACID] | > 30 | > 30 | > 30 | > 30 | > 30 | > 30 | > 30 | > 30 |
| O=C1Nc2ccccc2C1(c1ccc(O)cc1)c1ccc(O)cc1 [OXYPHENISATINE] | > 30 | > 30 | > 30 | > 30 | > 30 | > 30 | > 30 | > 30 |
| COc1cccc2c1C(=O)c1c(O)c3c(c(O)c1C2=O)C[C@@](O)(C(=O)CO)C[C@@H]3O[C@H]1C[C@H](N)[C@H](O)[C@H](C)O1 [DOXORUBICIN] | > 30 | > 30 | > 30 | > 30 | > 30 | > 30 | > 30 | 24.7 |
| O=C(OOC(=O)c1ccccc1)c1ccccc1 [BENZOYL PEROXIDE] | > 30 | > 30 | > 30 | 9.02 | > 30 | > 30 | > 30 | > 30 |
| CC(C)(C)NCC(O)COc1ccccc1C#N (stereo not drawn) [BUNITROLOL] | > 30 | > 30 | > 30 | > 30 | > 30 | > 30 | > 30 | > 30 |
